Experiments:
Cbl-b [1] = target: T1, Cbl-b (Homo sapiens, UniProt Q13191); test: Cbl-b activity assay (Cbl-b inhibition assay), TR-FRET of Cbl-b interaction with UbcH5B-Ub; format: biochemical; conditions: assay buffer with 100 mM NaCl, 60 nM Src kinase; read-out: Cbl-b activity IC50
Protocol: The ability of candidate compounds to inhibit Cbl-b activity was measured by monitoring the interaction of Cbl-b with UbcH5B-Ub in the presence of the candidate compound.
Fluorescently labeled UbcH5B-Ub was prepared by conjugating ubiquitin (Ub), labeled at its N-terminus with Bodipy-Fluorescein, to UbcH5B, an E2 enzyme, harboring a cysteine to lysine mutation at position 85. […] After incubation in the presence of the candidate compound, the plate was incubated for an additional 1.5 hours in the presence of 60 nM Src kinase with 1 mM ATP and 5 mM MgCl2 (final concentrations). […] The plate was incubated for 1 hour.
Column marked with an asterisk (*) were tested as described above with assay buffer containing 50 mM NaCl instead of 100 mM NaCl and 30 nM Src kinase instead of 60 nM Src kinase. The resulting data for the Cbl-b binding assay was solvent corrected and double referenced prior to analysis. All data were globally fit to a steady-state affinity and kinetic binding model where applicable). Fit parameters were derived from a 1:1 binding model using the Biacore T200 Evaluation Software V2.0 (GE Healthcare) (Table 2).

Cbl-b [2] = target: T1, Cbl-b; test: Cbl-b inhibition assay (Cbl-b activity assay, FRET, Biological Example 1; 100 mM NaCl, 60 nM Src kinase); format: biochemical; conditions: upper bound stated in text lists; read-out: IC50 values in the Cbl-b inhibition assay of Biological Example 1
Excerpt: FIG. 1A and FIG. 1B show a series of diagrams depicting the activity assay utilized to assay inhibition of Cbl-b activity by a Cbl-b inhibitor. FIG. 1A: The activity assay mixture comprises an N-terminal biotinylated Avi-tagged Cbl-b, an E2 enzyme (i.e., UbcH5B) irreversibly conjugated to Bodipy-Fluorescein tagged ubiquitin (i.e., UbcH5B-Ub), a Src kinase, streptavidin-terbium, and assay buffer. Phosphorylation of Cbl-b by the Src kinase allows UbcH5B-Ub to bind to Cbl-b and bring the Bodipy-Fluorescein tagged ubiquitin in proximity to the streptavidin-terbium bound to the N-terminal biotinylated Avi-tagged Cbl-b. […] FIG. 1B: In the presence of a Cbl-b inhibitor, such as one described herein, Cbl-b is unable to bind UbcH5B-Ub. The lack of a FRET signal indicates Cbl-b is inhibited by the Cbl-b inhibitor. Ub indicates ubiquitin; N-Avi indicates biotinylated Avi-tag at the N-terminus of Cbl-b; inhibitor indicates Cbl-b inhibitor.
The lack of a FRET signal indicates Cbl-b is inhibited by the Cbl-b inhibitor. In FIG. 1A and FIG. 1B, Ub indicates ubiquitin; N-Avi indicates biotinylated Avi-tag at the N-terminus of Cbl-b; and inhibitor indicates Cbl-b inhibitor.

T1 sequence (Q13191 36-427): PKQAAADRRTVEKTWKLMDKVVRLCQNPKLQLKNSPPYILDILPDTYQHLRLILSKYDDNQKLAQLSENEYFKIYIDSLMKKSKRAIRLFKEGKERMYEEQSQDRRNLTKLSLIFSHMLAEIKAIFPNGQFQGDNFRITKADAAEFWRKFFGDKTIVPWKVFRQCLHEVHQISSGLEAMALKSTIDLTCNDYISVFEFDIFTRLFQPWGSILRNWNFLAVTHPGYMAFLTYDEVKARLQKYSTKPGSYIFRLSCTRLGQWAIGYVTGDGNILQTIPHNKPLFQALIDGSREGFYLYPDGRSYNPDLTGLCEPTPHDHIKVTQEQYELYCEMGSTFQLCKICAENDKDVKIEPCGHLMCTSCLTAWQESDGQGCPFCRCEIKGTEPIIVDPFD

SMILES	IC50 (Cbl-b [1]) [nM]	IC50 (Cbl-b [2]) [nM]
C[C@H](Sc1nncn1C)c1ccnc(NC(=O)c2cc(Br)cc(C(F)(F)F)n2)c1 [Compound 119, 4-bromo-N-[4-[(1S)-1-[(4-methyl-1,2,4-triazol-3-yl)sulfanyl]ethyl]-2-pyridyl]-6-(trifluoromethyl)pyridine-2-carboxamide]	301 to 1000	≤ 1000
Cn1cnnc1CC1(c2cccc(N3Cc4c(cc(CN5CCO[C@H](C(F)(F)F)C5)cc4C(F)(F)F)C3=O)c2)COC1 [Example 707, (S)-2-(3-(3-((4-methyl-4H-1,2,4-triazol-3-yl)methyl)oxetan-3-yl)phenyl)-4-(trifluoromethyl)-6-((2-(trifluoromethyl)morpholino)methyl)isoindolin-1-one]	< 100	≤ 100
C[C@H](Cc1n[nH]cc1CO)c1cccc(N2Cc3c(cccc3C(F)(F)F)C2=O)c1 [Compound 271b, (R)-2-(3-(1-(4-(hydroxymethyl)-1H-pyrazol-3-yl)propan-2-yl)phenyl)-4-(trifluoromethyl)isoindolin-1-one]	1000 to 3000	≤ 10000
CC(c1cc(C(=O)Nc2cccc(C3(Cc4nncn4C)COC3)c2)nc(C2CC2)n1)N1CCC2(CC2)C1 (stereo in doubt) [Example 592b, (S)-6-(1-(5-azaspiro[2.4]heptan-5-yl)ethyl)-2-cyclopropyl-N-(3-(3-((4-methyl-4H-1,2,4-triazol-3-yl)methyl)oxetan-3-yl)phenyl)pyrimidine-4-carboxamide]	< 100	≤ 100
CC1=C(c2cc3c(c(C(F)(F)F)c2)CN(c2cccc(C4(Cc5nncn5C)COC4)c2)C3=O)CCO1 [Example 616, 6-(2-methyl-4,5-dihydrofuran-3-yl)-2-(3-(3-((4-methyl-4H-1,2,4-triazol-3-yl)methyl)oxetan-3-yl)phenyl)-4-(trifluoromethyl)isoindolin-1-one]	< 100	≤ 100
Cn1cnnc1CC1(c2cccc(N3Cc4c(cc(CN5CCOC(C)(C)C5)cc4C(F)(F)F)C3=O)c2)COC1 [Example 665, 6-((2,2-dimethylmorpholino)methyl)-2-(3-(3-((4-methyl-4H-1,2,4-triazol-3-yl)methyl)oxetan-3-yl)phenyl)-4-(trifluoromethyl)isoindolin-1-one]	< 100	≤ 100
Cn1cnnc1CC1(c2cccc(N3Cc4c(cc(CN5CC[C@H](F)[C@@H](F)C5)cc4C(F)(F)F)C3=O)c2)COC1 [Example 626a, 6-(((3S,4S)-3,4-difluoropiperidin-1-yl)methyl)-2-(3-(3-((4-methyl-4H-1,2,4-triazol-3-yl)methyl)oxetan-3-yl)phenyl)-4-(trifluoromethyl)isoindolin-1-one]	< 100	≤ 100
CC(c1cc2c(c(C(F)(F)F)c1)CN(c1cccc(C3(Cc4nncn4C)COC3)c1)C2=O)n1ccnc1 (stereo not shown) [Compound 542, 6-(1-(1H-imidazol-1-yl)ethyl)-2-(3-(3-((4-methyl-4H-1,2,4-triazol-3-yl)methyl)oxetan-3-yl)phenyl)-4-(trifluoromethyl)isoindolin-1-one]	< 100	≤ 100
C[C@@H]1CN(Cc2cc3c(c(C(F)(F)F)c2)CN(c2cccc(-c4c(-c5nncn5C)cnn4C)c2)C3=O)C[C@H](C)O1 [Compound 525, 6-(((2S,6S)-2,6-dimethylmorpholino)methyl)-2-(3-(l-methyl-4-(4-methyl-4H-1,2,4-triazol-3-yl)-1H-pyrazol-5-yl)phenyl)-4-(trifluoromethyl)isoindolin-1-one]	< 100	≤ 100
Cc1cc(C(=O)Nc2cccc(C3=C(c4nncn4C)CCC3)c2)nc(C2CC2)n1 [Compound 518, 2-cyclopropyl-6-methyl-N-(3-(2-(4-methyl-4H-1,2,4-triazol-3-yl)cyclopent-1-en-1-yl)phenyl)pyrimidine-4-carboxamide]	100 to 300	≤ 300
Cn1cnnc1CC1(c2cccc(N3Cc4c(cc(CN5CC6CC(C5)C6(F)F)cc4C(F)(F)F)C3=O)c2)COC1 [Example 640, 6-((6,6-difluoro-3-azabicyclo[3.1.1]heptan-3-yl)methyl)-2-(3-(3-((4-methyl-4H-1,2,4-triazol-3-yl)methyl)oxetan-3-yl)phenyl)-4-(trifluoromethyl)isoindolin-1-one]	< 100	≤ 100
Cc1cn(C)c(SC(C)c2ccnc(NC(=O)c3ccc4ccccc4n3)c2)n1 (stereo not shown) [Compound 129, N-(4-(1-((1,4-dimethyl-1H-imidazol-2-yl)thio)ethyl)pyridin-2-yl)quinoline-2-carboxamide]	> 10000	≤ 10000
CCOC(Cc1nncn1C)c1cccc(N2Cc3c(cccc3C(F)(F)F)C2=O)c1 (stereo not shown) [Compound 291, 2-(3-(1-ethoxy-2-(4-methyl-4H-1,2,4-triazol-3-yl)ethyl)phenyl)-4-(trifluoromethyl)isoindolin-1-one]	3000 to 10000	≤ 10000
CC(C)C1CN(Cc2cc3c(c(C(F)(F)F)c2)CN(c2cccc(C4(Cc5nncn5C)COC4)c2)C3=O)CCO1 (stereo not shown) [Example 716, 6-[(2-isopropylmorpholin-4-yl)methyl]-2-(3-{3-[(4-methyl-1,2,4-triazol-3-yl)methyl]oxetan-3-yl}phenyl)-4-(trifluoromethyl)-3H-isoindol-1-one]	< 100	≤ 100
Cn1cnnc1CC1(c2cccc(N3Cc4c(cc(CN5CCc6ncccc6C5)cc4C(F)(F)F)C3=O)c2)COC1 [Example 709, 6-((7,8-dihydro-1,6-naphthyridin-6(5H)-yl)methyl)-2-(3-(3-((4-methyl-4H-1,2,4-triazol-3-yl)methyl)oxetan-3-yl)phenyl)-4-(trifluoromethyl)isoindolin-1-one]	< 100	≤ 100
C[C@H](Cc1ncco1)c1cccc(N2Cc3c(cccc3C(F)(F)F)C2=O)c1 [Compound 261, (R)-2-(3-(1-(oxazol-2-yl)propan-2-yl)phenyl)-4-(trifluoromethyl)isoindolin-1-one]	3000 to 10000	≤ 10000
CNC(=O)c1ccc2c(c1)C(=O)N(c1cc(C(C)Sc3nncn3C)ccn1)C2 (stereo not shown) [Compound 173, N-methyl-2-(4-[1-[(4-methyl-4H-1,2,4-triazol-3-yl)sulfanyl]ethyl]pyridin-2-yl)-3-oxo-2,3-dihydro-1H-isoindole-5-carboxamide]	3000 to 10000	≤ 10000
C[C@H](Sc1nncn1C)c1cccc(NC(=O)c2cccc(N)c2)c1 [Compound 58, (S)-3-amino-N-(3-(1-((4-methyl-4H-1,2,4-triazol-3-yl)thio)ethyl)phenyl)benzamide]	3000 to 10000	≤ 10000
Cn1cnnc1CC1(c2cccc(N3Cc4c(cc(CN5CCOC(CF)C5)cc4C(F)(F)F)C3=O)c2)COC1 (stereo not shown) [Example 714, 6-((2-(fluoromethyl)morpholino)methyl)-2-(3-(3-((4-methyl-4H-1,2,4-triazol-3-yl)methyl)oxetan-3-yl)phenyl)-4-(trifluoromethyl)isoindolin-1-one]	< 100	≤ 100
Cn1cnnc1CC1(c2cccc(N3Cc4c(cc(CN5CCOC(C(F)F)C5)cc4C(F)(F)F)C3=O)c2)COC1 (stereo not shown) [Example 630, 6-{[2-(difluoromethyl)morpholin-4-yl]methyl}-2-(3-{3-[(4-methyl-1,2,4-triazol-3-yl)methyl]oxetan-3-yl}phenyl)-4-(trifluoromethyl)-3H-isoindol-1-one]	< 100	≤ 100
Cn1cnnc1CC1(c2cccc(N3Cc4c(cc(CN5CCc6cccnc6C5)cc4C(F)(F)F)C3=O)c2)COC1 [Example 645, 6-((5,8-dihydro-1,7-naphthyridin-7(6H)-yl)methyl)-2-(3-(3-((4-methyl-4H-1,2,4-triazol-3-yl)methyl)oxetan-3-yl)phenyl)-4-(trifluoromethyl)isoindolin-1-one]	< 100	≤ 100
C[C@H](Sc1nncn1C)c1ccnc(NC(=O)c2noc3ccccc23)c1 [Compound 115, (S)-N-(4-(1-((4-methyl-4H-1,2,4-triazol-3-yl)thio)ethyl)pyridin-2-yl)benzo[d]isoxazole-3-carboxamide]	3000 to 10000	≤ 10000
Cn1cnnc1CC1(c2cccc(N3Cc4c(cc(CN5CCOC(CCF)C5)cc4C(F)(F)F)C3=O)c2)COC1 (stereo not shown) [Compound 521, 6-{[2-(2-fluoroethyl)morpholin-4-yl]methyl}-2-(3-{3-[(4-methyl-1,2,4-triazol-3-yl)methyl]oxetan-3-yl}phenyl)-4-(trifluoromethyl)-3H-isoindol-1-one]	< 100	≤ 100
